From paper PMC4880976, “Pharmacologic rationale for the NK1R antagonist, aprepitant as adjunctive therapy in HIV” (Journal of Translational Medicine, 2016)
Where no end group is shown, it is not given here.

Tests used:
[1] = Table 1, literature values, no reference given; cited from earlier work
[2] = system: ATP-dependent K+ currents of mouse pancreatic B-cells; settings: in the absence of albumin; Table 1, reference not given; read-out: concentration blocking currents half maximally; cited from earlier work
[3] = cited from earlier work
human PBMC = assay: SP dependent cytokine and chemokine production by PBMC, multiplex assay; format: cell-based; settings: SP 10 µM, 24 h
Method: (§1) For cytokine and PD-1 assessment experiments freshly isolated peripheral blood mononuclear cell (PBMC) purchased from the Human Immunology Core Facility of The University of Pennsylvania School of Medicine (Philadelphia, PA) were cultured in RPMI medium supplemented with 10 % FBS overnight. Some cultures were treated with SP (10 µM) aprepitant (10 µM) or DMSO (0.001 %, vehicle for aprepitant). Cytokine concentrations were measured in supernatants using multiplex assay 24 h after SP/aprepitant treatment (see below). For PD-1 expression SP and aprepitant were added at day 0 and PD-1 expression was monitored daily for up to 8 days using flow cytometry.
Concentrations of pro-inflammatory cytokines and chemokines in supernatants of human PBMC were measured using human Cytokine/Chemokine Magnetic Bead Panel—Premixed 30 Plex, HCYTMAG-60K-PX30 (Millipore, Billerica, MA, USA) as recommended by the manufacturers.
Fig. 5 SP dependent up regulation of cytokine and chemokine production by human PBMC* is inhibited by aprepitant. *Freshly isolated PBMC from normal donors were incubated for 24 h with SP and/or Aprepitant (10 µM each) as indicated. Control cultures were either left untreated of incubated with DMSO (vehicle for aprepitant). Pro-inflammatory markers were measured in supernatants using MILLIPORE Human Cytokine/Chemokine Magnetic Bead Panel.

[4] = system: PD-1 expression on CD3+CD4+ cells; assay: PD-1 expression on CD4+ T-cells in PBMC, flow cytometry; format: cell-based, human
Method: as §1
Fig. 6 Aprepitant blocks SP induced PD-1 expression on CD4+ T-cells. PBMC were treated for 7 days with SP and aprepitant as indicated. PD-1 expression was measured by flow cytometry on CD3+CD4+ cells and expressed as percentage of PD-1 positive cells. a Results from representative experiment are shown. First two columns show gaiting strategy. […] Median (spread): control 14.7 (11.1), SP treated 38.4 (60.6), SP + aprepitant treated 7.8 (6.0) TEXT PRINTED IN THE PICTURE: (a) SP: PD1+ 67.1 | (a) SP + aprepitant: PD1+ 9.53 DOUBTS OF THE COPYIST ABOUT THIS PICTURE: SP + aprepitant, PD1+ 9.53: the sign after PD1 looks like '+' or '−' because it touches the gate line / SP + aprepitant, 9.53: small print, so the digits 9, 5 and 3 are not fully certain / The rows 'no staining' (PD1+ 0.079) and 'control' (PD1+ 11.4) were left out because they are not substances

[5] = system: CD163 cleavage in human monocytes; assay: sCD163 release from human monocytes, ELISA; format: cell-based; settings: SP, time- and dose-dependent, p < 0.001
Method: sCD163 was measured by ELISA (Trillium Diagnostics, Brewer, Maine, USA) according to manufacturer’s recommendations.
Fig. 7 SP induces cleavage of CD163 in monocytes. sCD163 was measured by ELISA in the supernatant of freshly isolated human monocytes treated with SP and aprepitant as indicated. a Time course of cells treated with varying doses of SP as indicated. *p < 0.001 control versus 5 and 10 μM of SP. b Cells were pre-incubated with aprepitant (10 μM) for 30 min and then treated with SP (5 μM) for 60 min. *p < 0.001 SP versus control, p = 0.004 SP versus SP + aprepitant. Results are presented as mean ± SD from three independent experiments

HIV = settings: Table 1, reference not given; cited from earlier work
5-HT2A receptor = molecular target: 5-HT2A receptor; design: method as in PMID 23702798, PMID 25113527; settings: partial agonist; cited from earlier work
serotonin reuptake = system: serotonin reuptake; design: method as in PMID 23702798, PMID 25113527; settings: at 10 μM; cited from earlier work
dopamine reuptake = system: dopamine reuptake; design: method as in PMID 23702798, PMID 25113527; settings: at 10 μM; cited from earlier work
[6] = system: vesicular monoamine transporter 2 (VMAT2); design: method as in PMID 23702798, PMID 25113527; settings: at 10 μM; cited from earlier work
5-HT2C receptor = system: 5-HT2C receptor; design: method as in PMID 23702798, PMID 25113527; settings: cited from earlier work
GABAA receptor = system: GABAA receptor; design: method as in PMID 23702798, PMID 25113527; settings: cited from earlier work

NS(=O)(=O)c1cc(C(=O)O)c(NCc2ccco2)cc1Cl [Furosemide]
PB % [1]: Furosemide (91–99 %)

CCCCNC(=O)NS(=O)(=O)c1ccc(C)cc1 [Tolbutamide]
IC50 [2]: 4.1 µM

O=C1NC(=O)C(c2ccccc2)(c2ccccc2)N1 [Phenytoin]
clinically effective serum trough concentration ([3]; in vivo): The clinically effective serum trough concentration is usually 40 to 80 µmol/L.

CCC[C@@H]1C[C@@H](C(=O)N[C@@H]([C@H]2O[C@H](SC)[C@H](O)[C@@H](O)[C@H]2O)[C@H](C)Cl)N(C)C1 [Clindamycin]
PB % [1]: Clindamycin (95 %)

substance P (RPKPQQFFGLM; ends and bridges not checked; UniProt P20366 58-68, looked up) [SP, substance P, ligand of its preferring receptor NK1R]
production of G-CSF, IL-6, IL-8, TNFα and MIP-1α (human PBMC): upregulated
production of MCP-1 (human PBMC): increased production
percentage of PD-1 positive CD4 cells, median (spread) ([4]; SP treated, 7 days, five experiments, control 14.7 (11.1)): 38.4 (60.6) %
PD-1 expression by CD4 T-cells ([4]; incubation of PBMC with SP, 6–8 days, p = 0.03): increased PD-1 expression
release of sCD163 [5]: fast release

O=C1Nc2ccc(Cl)cc2[C@@](C#CC2CC2)(C(F)(F)F)O1 [Efavirenz]
Plasma concentrations that appear to suppress HIV replication (HIV): Plasma concentrations above 2 mg/L appear to suppress HIV replication
Ki (5-HT2A receptor): 2.2 µM
serotonin reuptake inhibition (serotonin reuptake): 50%
dopamine reuptake inhibition (dopamine reuptake): 75%
VMAT2 inhibition [6]: 60%
action at 5-HT2C receptor (5-HT2C receptor): ligand
action at GABAA receptor (GABAA receptor): positive allosteric modulator

CN1C(=O)CN=C(c2ccccc2)c2cc(Cl)ccc21 [Diazepam]
PB % [1]: Diazepam+ (98.5 %)
target concentrations ([3]; Table 1 footnote, no reference given): < 1 µg/mL

CCCC(CCC)C(=O)O [Valproic Acid]
therapeutic range (total) ([3]; in vivo): The therapeutic range for valproic acid (total) is 50–125 µg/mL
